Measured values taken from patent US8791299B2, “Compounds for the inhibition of herpes viruses” (Universite Laval, priority 2009, dated 2014).
Read-outs that look alike come from different tables or passages of the source.

Tests used:
HSV-1 = experiment: Plaque reduction assay (PRA), HSV-1 in Vero cells; format: cell-based, herpes simplex 1; settings: for antiviral activity by PRA: wild-type HSV-1; for in vitro antiviral activity (concluding summary, words): HSV-1; for factor by which less active than ACV (IC50): representative wild-type HSV strains, PRA
Procedure: (§1) Top leading compounds were purchased from Sigma-Aldrich or ChemBridge for in vitro testing. On the day of the assay, compounds were prepared in DMSO at a concentration of 10 mM. Stock solutions were then diluted in Eagle's minimal essential medium (MEM) to the appropriate concentrations. ACV, GCV and FOS (prepared in MEM) were used as comparators for susceptible and resistant recombinant viruses and clinical isolates.
(§2) Antiviral activity of compounds 1 to 8 was first tested at two concentrations, i.e. 1 μM and 10 μM, along with currently-available first-line drugs (ACV for HSV/VZV and GCV for CMV). Then, 50% inhibitory concentration (IC50) values were determined for the top leading compounds in comparison with ACV, GCV and FOS using a standard plaque reduction assay (PRA). Briefly, Vero cells or HFFs seeded in 24-well plates were inoculated with 40 plaque forming units (PFUs) of recombinant viruses or clinical isolates. Infected cells were incubated with serial drug concentrations for appropriate periods of time. Cells were fixed and stained. The number of plaques was counted in each well and expressed in percentage of the PFUs in no-drug control wells. Recombinant and clinical viral strains were considered resistant to a drug if their IC50 values were at least 2.5 times greater than that of the representative wild-type strains.

CMV = experiment: Plaque reduction assay (PRA), CMV in HFFs; format: cell-based, cytomegalovirus; settings: for antiviral activity by PRA: wild-type CMV isolate
Procedure: as §1, §2

VZV = experiment: Plaque reduction assay (PRA), VZV in HFFs; format: cell-based, varicella zoster virus; settings: for antiviral activity by PRA: ACV-resistant VZV strains; for in vitro antiviral activity (concluding summary, words): VZV
Procedure: as §1, §2

HSV-2 = experiment: Plaque reduction assay (PRA), HSV-2 in Vero cells; format: cell-based, herpes simplex 2; settings: for antiviral activity by PRA: wild-type HSV-2; for in vitro antiviral activity (concluding summary, words): HSV-2; for factor by which less active than ACV (IC50): representative wild-type HSV strains, PRA
Procedure: as §1, §2

[1] = Microsomal stability in rat liver microsomes; format: in vitro ADME; settings: Sprague-Dawley; for half-life at 2 μM: rat liver microsomes 1 mg/ml, 2 μM compound, 37° C., NADPH, read-out: Half-life (t1/2); for CLint scaled at 2 μM: rat liver microsomes
Procedure: Sprague-Dawley rat liver microsomes (concentration 1 mg/ml) were incubated at 37° C. with 2 μM of compounds 2 or 3 in PBS containing 5 mM MgCl2 and 1 mM NADPH. The antihypertensive drug reserpine was used as a reference compound. Aliquots of 50 μl were withdrawn at different time intervals and placed in 96-well plates containing 50 μL of acetonitrile on ice. Samples were then mixed and centrifuged at 3000 rpm and 10 μL were injected in a liquid chromatography system (Agilent 1100 Binary Pumps). The aliquots from liquid chromatography were subjected to mass spectrometry analysis on SCIEX API4000 with TurboIonSpray ionization source to determine the remaining percentage of the parent compound. Intrinsic clearance (Clint) estimates were determined using the rate of parent compound disappearance. The slope (-k) was determined by linear regression analysis from the linear portion of the natural logarithm of the test compound concentration versus time plot. The […] (t1/2) was calculated according to k=ln 2/t1/2. The microsomal Clint can be derived from the equation Clint=kVfu (mL/min/mg protein) where fu is the unbound fraction and V is the volume of the incubation expressed in milliliters per mg of microsomal protein. As fu is not known for the tested compounds, the calculation was performed with fu=1 (V). The Clint was also extrapolated to the whole liver protein.

Vero cells = experiment: MTS cell proliferation (cytotoxicity) assay on Vero cells; settings: for toxicity (CC50) compared with ACV, GCV and FOS: Vero cells, MTS assay; for therapeutic index (CC50/IC50): CC50 Vero cells, IC50 of the HSV-1 reference strain (H25)
Procedure: (§3) Human foreskin fibroblasts (HFFs) and African green monkey kidney cells (Vero) were grown in MEM supplemented with 10% fetal bovine serum. Cells were maintained at 37° C. in a humidified 5% CO2 atmosphere. Vero cells and HFFs were used for propagation of viral strains and susceptibility assays for HSV-1/HSV-2 and VZV/CMV, respectively. Clinical strains H25 (HSV-1), HSV22 (HSV-2) as well as laboratory strains KOS(HSV-1), Ellen (VZV) and AD169 (CMV) were used as wild-type susceptible reference isolates. Clinical strains C119629 (HSV-1), C114093 (HSV-1), C80249 (HSV-1), L920062 (HSV-1), MS2 (HSV-2), C75134 (HSV-2), W-940012 (HSV-2), C72984 (HSV-2), D-900180 (HSV-2), M-890546 (HSV-2), P-920056 (HSV-2) and GB2000VZV (VZV) as well as laboratory strains Xbaf (CMV) and VQA3 (CMV) were used as drug (ACV/GCV/FOS)— resistant isolates. All clinical strains starting with the letter C originated from the Quebec City clinical virology laboratory.
(§4) This assay is based on the use of solutions of a tetrazolium salt (3-(4,5-dimethylthiazol-2-yl)-5-(3-carboxymethoxyphenyl)-2-(4-sulphophenyl)-2H-tetrazolium, inner salt; MTS) and an electron coupling reagent (phenazine methosulfate; PMS). The tetrazolium salt is reduced by living cells to yield a formazan product that can be assayed colorimetrically. Briefly, HFFs and Vero cells were seeded in 96-well plates. After 24 h, media was aspirated and 100 μl of compounds diluted in MEM at concentrations up to 100 μM were added to wells in quaduplicate. After incubation at 37° C. for 3 days, 10 μl of a solution of MTS and PMS were added to each well. The plates were incubated at 37° C. for 2 h. The absorbance of the supernatant was read at a wavelength of 492 nm to measure cell viability compared to no-drug control wells. The drug concentration was plotted against the optical density of each sample and cellular toxicity (CC50) was calculated using GraphPad Prism version 5.0 (GraphPad Inc., La Jolla, Calif., USA).

[2] = Parallel Artificial Membrane Permeability Assay (PAMPA); format: in vitro ADME; settings: for Papp at 5 h: 5 h incubation, n=4, read-out: apparent permeability coefficient (Papp)
Procedure: Passive membrane permeability was determined using Parallel Artificial Membrane Permeability Assay (PAMPA). Initial concentrations of compounds 2 and 3 used for this assay were 37 and 2.5 respectively. Membrane area was 0.3 cm^2. After a 5 h incubation, fractions were taken on both sides of the membrane and compound concentrations were determined by LC-MS/MS. The apparent permeability coefficient (Papp) was calculated using the equation Papp=(dQ/dtAc0), where dQ/dt is the appearance rate of compound in the acceptor compartment, A is the surface area of the transwell membrane, and co is the initial concentration in the donor compartment.

[3] = system: Human foreskin fibroblasts (HFFs); experiment: MTS cell proliferation (cytotoxicity) assay on HFFs; settings: for toxicity (CC50) compared with ACV, GCV and FOS: HFFs, MTS assay
Procedure: as §3, §4

[4] = fu=1, read-out: intrinsic clearance (Clint) extrapolated to whole rat liver

## O=C(CNC(=O)c1cccc2ccccc12)N/N=C/c1ncccc1O [Compound C2.11, N-(2-{(2E)-2-[(3-hydroxypyridin-2-yl)methylidene)hydrazinyl}-2-oxoethyl)naphthalene-1-carboxamide]
HSV-1
  antiviral activity by PRA: not against HSV-1
CMV
  antiviral activity by PRA: not active
VZV
  antiviral activity by PRA: active
HSV-2
  antiviral activity by PRA: active

## COC(=O)[C@H]1[C@H]2C[C@@H]3c4[nH]c5cc(OC)ccc5c4CCN3C[C@H]2C[C@@H](OC(=O)c2cc(OC)c(OC)c(OC)c2)[C@@H]1OC [reserpine, reference compound]
[1]
  half-life at 2 μM: 43 min
[1]; reference compound, read-out: intrinsic clearance (Clint)
  CLint scaled at 2 μM: 28 mL/min/kg

## C=CCc1cccc(/C=N/NC(=O)CNC(=O)c2cccc(Cl)c2)c1O [Compound 3, 3-chloro-N-(2-{(2E)-2-[2-hydroxy-3-(prop-2-en-1-yl)benzylidene]hydrazinyl}-2-oxoethyl)benzamide]
Vero cells
  toxicity (CC50) compared with ACV, GCV and FOS: somewhat more toxic
[1]
  half-life at 2 μM: 22 min
[1]; [4]
  CLint scaled at 2 μM: 62 mL/min/kg
CMV; CMV
  in vitro antiviral activity (concluding summary, words): highly active
CMV; CMV reference strain, PRA
  factor by which less active than GCV (IC50): 2 fold
CMV; GCV- and/or FOS-resistant CMV strains, HFF cells
  IC50 value increases compared to the representative wild-type strain: 1 to 2 fold
[2]
  permeability class: intermediate (intermediate (1<Papp<10))
  Papp at 5 h: 3.4 ± 0.45 ×10⁻⁶ cm/s
[3]; CC50 HFFs, IC50 of the CMV reference strain (AD169)
  therapeutic index (CC50/IC50): 6.6
[3]
  toxicity (CC50) compared with ACV, GCV and FOS: somewhat more toxic

## Cc1cccc(/C=C/NNC(=O)CNC(=O)c2cccc(Cl)c2)c1O [Compound C3-1, 3-chloro-N-(2-{2-[(E)-2-(2-hydroxy-3-methylphenyl)ethenyl]hydrazinyl}-2-oxoethyl)benzamide]
HSV-1
  antiviral activity by PRA: not active
CMV
  antiviral activity by PRA: not active
VZV
  antiviral activity by PRA: not active
HSV-2
  antiviral activity by PRA: not active

## O=C(CNC(=O)c1cccc2ccccc12)N/N=C/c1ccc(F)cc1O [Compound C2.20, N-{2-[(2E)-2-(4-fluoro-2-hydroxybenzylidene)hydrazinyl]-2-oxoethyl}naphthalene-1-carboxamide]
Vero cells
  therapeutic index (CC50/IC50): 9.6
HSV-1
  in vitro antiviral activity (concluding summary, words): retained excellent activity
  antiviral activity by PRA: as active
CMV
  antiviral activity by PRA: not active
VZV
  antiviral activity by PRA: as active
  in vitro antiviral activity (concluding summary, words): retained excellent activity
HSV-2
  in vitro antiviral activity (concluding summary, words): retained excellent activity
  antiviral activity by PRA: as active

## O=C(CNC(=O)c1cccc2ccccc12)N/N=C/c1ccccc1O [Compound 2, N-{2-[(2E)-2-(2-hydroxybenzylidene)hydrazinyl]-2-oxoethyl}naphthalene-1-carboxamide]
Vero cells
  therapeutic index (CC50/IC50): 19.3
  toxicity (CC50) compared with ACV, GCV and FOS: somewhat more toxic
[1]
  half-life at 2 μM: 33 min
[1]; [4]
  CLint scaled at 2 μM: 37 mL/min/kg
HSV-1; ACV- and/or FOS-resistant HSV-1 strains, Vero cells
  IC50 value increases compared to the representative wild-type strains: 0.7 to 1.7 fold
HSV-1
  in vitro antiviral activity (concluding summary, words): highly active
  factor by which less active than ACV (IC50): 2 to 3 fold
[2]
  permeability class: high (high (Papp>10))
  Papp at 5 h: 11.3 ± 1.17 ×10⁻⁶ cm/s
VZV
  in vitro antiviral activity (concluding summary, words): highly active
VZV; representative wild-type VZV strain, PRA
  factor by which less active than ACV (IC50): 2 to 3 fold
[3]
  toxicity (CC50) compared with ACV, GCV and FOS: somewhat more toxic
HSV-2; ACV- and/or FOS-resistant HSV-2 strains, Vero cells
  IC50 value increases compared to the representative wild-type strains: 0.7 to 1.7 fold
HSV-2
  in vitro antiviral activity (concluding summary, words): highly active
  factor by which less active than ACV (IC50): 2 to 3 fold

## COc1ccc(O)c(C=NNC(=O)CNC(=O)c2cccc3ccccc23)c1 [Compound 9, N-(2-(2-(2-hydroxy-5-methoxybenzylidene)hydrazino)-2-oxoethyl)-1-naphthamide]
HSV-1
  factor by which less active than ACV (IC50): 3 to 4 fold
HSV-2
  factor by which less active than ACV (IC50): 3 to 4 fold

## O=C(CNC(=O)c1cccc2ccccc12)N/N=C/c1c(O)cccc1O [Compound C2.05, N-{2-[(2E)-2-(2,6-dihydroxybenzylidene)hydrazinyl]-2-oxoethyl}naphthalene-1-carboxamide]
HSV-1
  antiviral activity by PRA: active against wild-type HSV-2 only
CMV
  antiviral activity by PRA: not active
VZV
  antiviral activity by PRA: active against wild-type HSV-2 only
HSV-2
  antiviral activity by PRA: active

## 3-chloro-N-(2-{2-[(E)-2-(1-hydroxynaphthalen-2-yl)ethenyl]hydrazinyl}-2-oxoethyl)benzamide [Compound C3-2]
HSV-1
  antiviral activity by PRA: not active
CMV
  antiviral activity by PRA: not active
VZV
  antiviral activity by PRA: not active
HSV-2
  antiviral activity by PRA: not active
